Reference: paper PMC11016064, “One substrate many enzymes virtual screening uncovers missing genes of carnitine biosynthesis in human and mouse” (Nature Communications, 2024)
Where two headings read alike, the source gives them in different places.

What was measured:
SHMT2 [1] = molecular target: T1, SHMT2 (Homo sapiens, UniProt P34897); experiment: TMABADH-coupled spectrophotometric aldolase assay (Km); assay type: biochemical
T1 sequence (P34897 30-504): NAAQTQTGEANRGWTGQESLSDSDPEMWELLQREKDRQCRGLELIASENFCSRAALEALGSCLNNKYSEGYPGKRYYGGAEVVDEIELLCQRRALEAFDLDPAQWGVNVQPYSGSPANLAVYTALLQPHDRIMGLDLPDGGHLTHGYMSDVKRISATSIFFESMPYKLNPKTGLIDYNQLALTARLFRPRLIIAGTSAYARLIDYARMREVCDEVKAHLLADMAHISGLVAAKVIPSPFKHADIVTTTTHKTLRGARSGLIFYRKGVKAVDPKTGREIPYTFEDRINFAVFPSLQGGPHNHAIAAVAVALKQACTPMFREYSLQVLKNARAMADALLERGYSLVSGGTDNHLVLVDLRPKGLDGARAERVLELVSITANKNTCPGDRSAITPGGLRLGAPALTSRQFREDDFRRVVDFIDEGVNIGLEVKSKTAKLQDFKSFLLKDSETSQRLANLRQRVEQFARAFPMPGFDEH

SHMT1 [2] = molecular target: T2, SHMT1 (Homo sapiens, UniProt P34896); experiment: TMABADH-coupled spectrophotometric aldolase assay (Km); 1H NMR; assay type: biochemical
T2 sequence (P34896 2-483): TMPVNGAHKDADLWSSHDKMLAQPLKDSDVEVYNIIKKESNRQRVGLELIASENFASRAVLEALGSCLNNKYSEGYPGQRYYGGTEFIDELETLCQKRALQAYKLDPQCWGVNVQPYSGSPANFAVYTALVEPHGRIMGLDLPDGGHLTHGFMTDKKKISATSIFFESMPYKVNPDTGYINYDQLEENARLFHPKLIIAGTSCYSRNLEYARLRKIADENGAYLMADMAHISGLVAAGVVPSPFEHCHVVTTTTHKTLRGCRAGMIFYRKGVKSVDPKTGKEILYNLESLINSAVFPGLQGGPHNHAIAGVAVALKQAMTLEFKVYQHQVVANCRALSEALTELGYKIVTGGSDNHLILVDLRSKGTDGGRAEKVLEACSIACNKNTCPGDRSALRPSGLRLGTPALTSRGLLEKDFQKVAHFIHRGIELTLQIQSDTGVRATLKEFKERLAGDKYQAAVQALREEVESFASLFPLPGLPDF

[3] = molecular target: T3, low-specificity threonine aldolase eTA (Escherichia coli, UniProt P75823); experiment: TMABADH-coupled spectrophotometric aldolase assay; assay type: biochemical
T3 construct: gene ltaE

KYAT1 = molecular target: T4, KYAT1 (Homo sapiens, UniProt Q16773); experiment: spectrophotometric kynurenine aminotransferase assay at […] nm, Lineweaver-Burk; assay type: biochemical
T4 sequence (Q16773 1-422): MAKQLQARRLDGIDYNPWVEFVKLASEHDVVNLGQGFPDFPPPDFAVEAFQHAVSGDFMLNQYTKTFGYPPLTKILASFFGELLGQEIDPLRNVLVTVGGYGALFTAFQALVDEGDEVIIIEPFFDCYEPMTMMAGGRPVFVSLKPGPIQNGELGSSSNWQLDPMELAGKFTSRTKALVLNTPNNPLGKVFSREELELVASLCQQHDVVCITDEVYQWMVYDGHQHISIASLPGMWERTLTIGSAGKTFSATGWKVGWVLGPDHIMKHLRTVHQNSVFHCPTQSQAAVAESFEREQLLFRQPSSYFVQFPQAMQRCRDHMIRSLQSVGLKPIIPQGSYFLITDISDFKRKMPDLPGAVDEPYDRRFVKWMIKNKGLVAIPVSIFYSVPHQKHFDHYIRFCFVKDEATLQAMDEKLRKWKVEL

SHMT2 [4] = molecular target: T1, SHMT2; parameters: Threonine cleavage coupled to alcohol dehydrogenase, NADH depletion at 340 nm, Michaelis-Menten fit; conditions: substrate
Experimental: (§1) The HTMLA activity was measured by coupling the aldol cleavage of HTML with the oxidation of TMABA by NAD^+ catalyzed by TMABADH. The rate of the reaction was calculated from the rate of appearance in absorbance at 340 nm, due to the formation of NADH, using a value of ε340 = 6220 cm^−1·M^−1. The reaction was carried out using 1 µM SHMT1 or 4 µM SHMT2 in 50 mM potassium phosphate, pH 7.5, containing 1 mM EDTA, 5 mM 2-mercaptoethanol, 0.5 mM NAD^+ and 8 µM TMABADH, at 37 °C. For Tha1 (1 µM) and eTA (0.1 µM) we kept the same conditions but a different temperature (30 °C) due to their low stability at 37 °C. The rate of L-allo-threonine and threonine cleavage was measured by coupling the reaction with reduction of the product acetaldehyde by NADH and alcohol dehydrogenase. With L-allo-threonine as substrate were reduced the amount of SHMT enzymes, 0.15 µM for SHMT1 and 1 µM for SHMT2.The rate of the reaction was calculated from the rate of disappearance in absorbance at 340 nm, due to NADH depletion.

SHMT1 [5] = molecular target: T2, SHMT1; parameters: Threonine cleavage coupled to alcohol dehydrogenase, NADH depletion at 340 nm, Michaelis-Menten fit; conditions: substrate
Experimental: as §1

[6] = molecular target: T5, threonine aldolase (Tha1) (Mus musculus, UniProt Q6XPS7)
T5 sequence (Q6XPS7 41-400): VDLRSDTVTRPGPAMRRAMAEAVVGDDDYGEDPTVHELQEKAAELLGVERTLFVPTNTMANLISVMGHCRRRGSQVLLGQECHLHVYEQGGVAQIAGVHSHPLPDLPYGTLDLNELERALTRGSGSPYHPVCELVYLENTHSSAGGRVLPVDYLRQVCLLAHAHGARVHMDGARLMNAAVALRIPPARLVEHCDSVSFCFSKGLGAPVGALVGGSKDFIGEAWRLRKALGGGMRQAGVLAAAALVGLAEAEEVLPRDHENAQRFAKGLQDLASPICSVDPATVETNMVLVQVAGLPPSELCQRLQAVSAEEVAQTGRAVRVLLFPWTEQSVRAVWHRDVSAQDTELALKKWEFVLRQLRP

SHMT2 [7] = molecular target: T1, SHMT2
SHMT1 [8] = molecular target: T2, SHMT1
[9] = molecular target: T5, threonine aldolase (Tha1); experiment: X-ray crystal structure (monoclinic C2 form); assay type: binding; parameters: without the first 40 amino acids (predicted mitochondrial signal)
[10] = substrate: C[N+](C)(C)CCC[C@H](O)[C@H](N)C(=O)[O-]; experiment: TMABADH-coupled spectrophotometric aldolase assay (Km); 1H NMR; assay type: biochemical, Mus musculus; conditions: PLP
[11] = substrate: C[C@H](O)[C@H](N)C(=O)O; experiment: purified protein, by the assay type; parameters: Threonine cleavage coupled to alcohol dehydrogenase, NADH depletion at 340 nm, Michaelis-Menten fit; conditions: pH 7.5
Experimental: as §1

[12] = substrate: C[C@@H](O)[C@H](N)C(=O)O; experiment: purified protein, by the assay type; parameters: Threonine cleavage coupled to alcohol dehydrogenase, NADH depletion at 340 nm, Michaelis-Menten fit; conditions: pH 7.5
Experimental: as §1

[13] = molecular target: the molecule itself; experiment: crystal structure; sitting drop at 18 °C, 0.2 M sodium nitrate, 0.1 M Bis-Tris propane pH 8.5, 20% w/v PEG 3350; space groups F222 (one molecule in the ASU) and C2 (two molecules in the ASU); tetramer formed by crystallographic symmetries

T3 sequence (P75823 whole entry): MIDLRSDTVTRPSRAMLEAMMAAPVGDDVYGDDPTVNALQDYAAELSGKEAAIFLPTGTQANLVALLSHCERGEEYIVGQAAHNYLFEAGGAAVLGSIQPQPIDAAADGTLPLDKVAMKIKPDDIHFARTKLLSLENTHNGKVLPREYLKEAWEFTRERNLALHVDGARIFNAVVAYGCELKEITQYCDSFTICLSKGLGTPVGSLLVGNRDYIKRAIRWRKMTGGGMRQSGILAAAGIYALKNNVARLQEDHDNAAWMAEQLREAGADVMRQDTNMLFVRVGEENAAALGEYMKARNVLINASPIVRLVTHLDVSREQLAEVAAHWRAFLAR

For `C[N+](C)(C)CCC[C@H](O)[C@H](N)C(=O)[O-]` [HTML], the Km (SHMT2 [1]) was 0.8 mM, the Km (SHMT1 [2]) was 3.79 mM and the “TMABADH-coupled spectrophotometric aldolase assay” value [3] was “Characterization of its catalytic efficiency for L-allo-threonine and HTML, showed high activity with both substrates”. It also gave a Ki (KYAT1) of 4 mM.

In the case of `C[C@H](O)[C@H](N)C(=O)O` [L-allo-threonine], the Km (SHMT2 [4]) is reported as 1.34 ± 0.115 mM, the Km (SHMT1 [5]) is reported as 0.226 ± 0.017 mM and the “alcohol dehydrogenase-coupled spectrophotometric aldolase assay (kcat/Km)” value [6] is reported as ~ 10^2 s^-1 M^-1. For the same molecule, the “alcohol dehydrogenase-coupled spectrophotometric aldolase assay (kcat/Km)” value (SHMT2 [7]) was ~ 10^2 s^-1 M^-1 and the “alcohol dehydrogenase-coupled spectrophotometric aldolase assay (kcat/Km)” value (SHMT1 [8]) was ~ 10^4 s^-1 M^-1.

In the case of `C[C@@H](O)[C@H](N)C(=O)O` [L-threonine], the Km (SHMT2 [4]) is reported as 41.2 ± 3.43 mM, the Km (SHMT1 [5]) is reported as 36.5 ± 2.48 mM and the “alcohol dehydrogenase-coupled spectrophotometric aldolase assay (kcat/Km)” value [6] is reported as ~ 10^1 s^-1 M^-1.

For `Cc1ncc(COP(=O)(O)O)c(C=O)c1O` [PLP], the “X-ray crystal structure (monoclinic C2 form)” value [9] was “In Tha1, the PLP cofactor, bound to Lys242, is stabilized in the active site by a network of hydrogen bonds”.

B1: threonine aldolase (Tha1) (Mus musculus) (protein)
chain: VDLRSDTVTRPGPAMRRAMAEAVVGDDDYGEDPTVHELQEKAAELLGVERTLFVPTNTMANLISVMGHCRRRGSQVLLGQECHLHVYEQGGVAQIAGVHSHPLPDLPYGTLDLNELERALTRGSGSPYHPVCELVYLENTHSSAGGRVLPVDYLRQVCLLAHAHGARVHMDGARLMNAAVALRIPPARLVEHCDSVSFCFSKGLGAPVGALVGGSKDFIGEAWRLRKALGGGMRQAGVLAAAALVGLAEAEEVLPRDHENAQRFAKGLQDLASPICSVDPATVETNMVLVQVAGLPPSELCQRLQAVSAEEVAQTGRAVRVLLFPWTEQSVRAVWHRDVSAQDTELALKKWEFVLRQLRP
notes: without the first 40 amino acids (predicted mitochondrial signal)
Work on B1 yielded a Km [10] of 0.169 mM, a Km [11] of 8.236 ± 0.86 mM and a kcat/Km [11] of 238 ± 26.2 M⁻¹ s⁻¹. It also gave a Km [12] of 37.531 ± 10.873 mM.

B2: mouse threonine aldolase (Tha1), truncated form without the first 40 amino acids (enzyme, UniProt Q6XPS7 41-400, looked up)
chain: VDLRSDTVTRPGPAMRRAMAEAVVGDDDYGEDPTVHELQEKAAELLGVERTLFVPTNTMANLISVMGHCRRRGSQVLLGQECHLHVYEQGGVAQIAGVHSHPLPDLPYGTLDLNELERALTRGSGSPYHPVCELVYLENTHSSAGGRVLPVDYLRQVCLLAHAHGARVHMDGARLMNAAVALRIPPARLVEHCDSVSFCFSKGLGAPVGALVGGSKDFIGEAWRLRKALGGGMRQAGVLAAAALVGLAEAEEVLPRDHENAQRFAKGLQDLASPICSVDPATVETNMVLVQVAGLPPSELCQRLQAVSAEEVAQTGRAVRVLLFPWTEQSVRAVWHRDVSAQDTELALKKWEFVLRQLRP
modifications: PLP cofactor bound to Lys242 (visible only in the monoclinic structure)
notes: Threonine aldolase Tha1, Mus musculus, CDS NM_027919.4 without the first 40 amino acids (predicted mitochondrial signal); The plasmid was bought from GenScript; also called Htmla; hydroxytrimethyllysine aldolase; source: E. coli BL21 with pGRO7 (GroEL/GroES co-expressed), purified (HisTrap, Superdex 200 size exclusion); not shown: His tag (from the vector pET-28b)
B2 was tested, and the “stoichiometry N” value [13] was 4.
